In patent US20220009920A1 (GB005, Inc., priority 2020, published 2022):

Legend:
BTK = molecular target: T1, BTK (Homo sapiens, UniProt Q06187); assay: Assay to determine activity against BTK; assay type: biochemical; conditions: 1 mM ATP, 2 nM BTK, 90 minutes at room temperature
T1 construct: purchased Cama
Outline: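 Recombinant BTK (2 nM) was assayed with 1.5 µM FL-peptide and 1 mM ATP in pH 7.5 HEPES buffer with MgCl2, DTT, BSA and EGTA, for 90 min at room temperature before an EDTA stop. Peptide conversion ratio was read by mobility-shift, and IC50 came from 11-point 3-fold dilution curves.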

BTK in RAMOS B cells = assay: Assay to determine BTK activity in RAMOS B cells (anti-IgM, FLIPR Calcium 6); assay type: cell-based; conditions: anti-IgM EC80, calcium readout
CSF1R/FMS = molecular target: T2, CSF1R/FMS (Homo sapiens, UniProt P07333); assay: Large panel kinase profiling; assay type: biochemical; conditions: 1 μM test article, 1 mM ATP
T2 construct: AssayQuant Technologies, Inc. (service laboratory)
Outline: (§1)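 Continuous-read kinase assay: chelation-sensor peptide, 1 mM ATP, compound at 1 μM. Plates kept at 30° C.; fluorescence sampled at 1-min intervals (360/485 nm).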

LATS1 = molecular target: T3, LATS1 (Homo sapiens, UniProt O95835); assay: Large panel kinase profiling; assay type: biochemical; conditions: 1 μM test article, 1 mM ATP
T3 sequence (O95835 1-1130): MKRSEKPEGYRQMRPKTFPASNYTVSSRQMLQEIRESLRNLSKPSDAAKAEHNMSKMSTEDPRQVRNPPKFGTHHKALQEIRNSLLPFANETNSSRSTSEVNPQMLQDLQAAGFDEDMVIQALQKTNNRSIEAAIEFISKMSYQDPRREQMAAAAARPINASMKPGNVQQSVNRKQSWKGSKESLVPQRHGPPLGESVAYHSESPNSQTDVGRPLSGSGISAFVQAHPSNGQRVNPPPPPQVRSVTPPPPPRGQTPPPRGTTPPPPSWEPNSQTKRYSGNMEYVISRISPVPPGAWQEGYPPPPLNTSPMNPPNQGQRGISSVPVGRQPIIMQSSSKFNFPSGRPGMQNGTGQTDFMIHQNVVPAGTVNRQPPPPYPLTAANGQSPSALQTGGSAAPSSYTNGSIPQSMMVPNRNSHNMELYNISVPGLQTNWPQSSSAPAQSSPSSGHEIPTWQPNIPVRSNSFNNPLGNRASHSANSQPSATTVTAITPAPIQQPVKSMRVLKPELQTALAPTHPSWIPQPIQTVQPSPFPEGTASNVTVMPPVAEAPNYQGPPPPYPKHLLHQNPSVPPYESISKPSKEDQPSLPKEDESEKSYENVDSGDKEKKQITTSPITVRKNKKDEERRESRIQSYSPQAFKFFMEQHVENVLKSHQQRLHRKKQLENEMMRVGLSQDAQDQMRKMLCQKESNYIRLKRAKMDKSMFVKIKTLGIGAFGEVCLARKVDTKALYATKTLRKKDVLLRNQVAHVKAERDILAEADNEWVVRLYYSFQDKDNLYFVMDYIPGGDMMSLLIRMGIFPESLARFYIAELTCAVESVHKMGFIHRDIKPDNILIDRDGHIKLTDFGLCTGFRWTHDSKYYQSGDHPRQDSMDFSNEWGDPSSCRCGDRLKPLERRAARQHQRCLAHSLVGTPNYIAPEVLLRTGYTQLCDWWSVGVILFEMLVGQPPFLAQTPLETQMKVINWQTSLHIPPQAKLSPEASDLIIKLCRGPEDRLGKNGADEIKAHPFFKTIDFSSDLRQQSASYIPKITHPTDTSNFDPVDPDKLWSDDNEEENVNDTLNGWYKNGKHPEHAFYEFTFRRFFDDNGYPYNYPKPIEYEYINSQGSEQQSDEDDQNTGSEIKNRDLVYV
Outline: as §1

T2 sequence (P07333 20-972): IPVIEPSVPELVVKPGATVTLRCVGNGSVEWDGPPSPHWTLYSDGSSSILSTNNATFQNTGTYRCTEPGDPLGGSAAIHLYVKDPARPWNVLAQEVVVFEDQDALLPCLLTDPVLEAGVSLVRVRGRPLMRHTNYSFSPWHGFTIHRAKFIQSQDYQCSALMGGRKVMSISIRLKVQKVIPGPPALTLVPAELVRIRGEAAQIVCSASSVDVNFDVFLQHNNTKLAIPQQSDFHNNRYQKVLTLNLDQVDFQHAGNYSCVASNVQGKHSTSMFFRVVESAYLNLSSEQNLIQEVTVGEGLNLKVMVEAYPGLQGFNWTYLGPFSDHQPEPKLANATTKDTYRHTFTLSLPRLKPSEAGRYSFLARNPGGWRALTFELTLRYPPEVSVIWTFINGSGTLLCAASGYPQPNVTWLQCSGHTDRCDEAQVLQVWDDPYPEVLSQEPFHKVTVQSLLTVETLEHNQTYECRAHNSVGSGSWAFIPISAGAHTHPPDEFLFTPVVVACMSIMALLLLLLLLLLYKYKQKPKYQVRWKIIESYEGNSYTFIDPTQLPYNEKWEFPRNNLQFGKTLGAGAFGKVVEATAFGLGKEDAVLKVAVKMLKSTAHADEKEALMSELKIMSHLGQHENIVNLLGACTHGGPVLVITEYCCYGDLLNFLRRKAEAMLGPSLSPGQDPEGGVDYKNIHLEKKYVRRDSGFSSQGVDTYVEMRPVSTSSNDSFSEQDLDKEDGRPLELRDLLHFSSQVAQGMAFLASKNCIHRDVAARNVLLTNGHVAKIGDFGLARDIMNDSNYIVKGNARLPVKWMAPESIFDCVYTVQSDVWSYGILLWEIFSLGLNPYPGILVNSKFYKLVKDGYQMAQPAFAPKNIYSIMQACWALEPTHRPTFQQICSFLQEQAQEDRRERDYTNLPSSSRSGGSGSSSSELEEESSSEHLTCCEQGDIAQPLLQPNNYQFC
T1 sequence (Q06187 whole entry): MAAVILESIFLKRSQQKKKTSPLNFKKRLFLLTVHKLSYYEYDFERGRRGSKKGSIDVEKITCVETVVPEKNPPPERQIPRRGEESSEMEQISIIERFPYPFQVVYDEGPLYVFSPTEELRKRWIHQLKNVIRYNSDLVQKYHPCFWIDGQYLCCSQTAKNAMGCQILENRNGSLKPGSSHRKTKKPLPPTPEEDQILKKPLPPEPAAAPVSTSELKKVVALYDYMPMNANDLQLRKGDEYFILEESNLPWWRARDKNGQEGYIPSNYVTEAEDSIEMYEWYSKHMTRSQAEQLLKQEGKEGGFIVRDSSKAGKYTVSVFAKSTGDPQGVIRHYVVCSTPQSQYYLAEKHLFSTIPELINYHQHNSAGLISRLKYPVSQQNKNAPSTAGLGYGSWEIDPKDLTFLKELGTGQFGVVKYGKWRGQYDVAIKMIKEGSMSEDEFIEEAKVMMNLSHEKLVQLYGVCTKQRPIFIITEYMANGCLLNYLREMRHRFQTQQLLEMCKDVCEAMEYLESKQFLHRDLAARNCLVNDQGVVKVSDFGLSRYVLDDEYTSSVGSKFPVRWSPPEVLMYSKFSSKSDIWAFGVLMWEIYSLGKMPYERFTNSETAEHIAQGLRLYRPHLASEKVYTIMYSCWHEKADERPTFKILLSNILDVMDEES

SMILES | IC50 (BTK) | IC50 (BTK in RAMOS B cells) | inhibition at 1 µM (CSF1R/FMS) | inhibition at 1 µM (LATS1) | IC50 (BTK in RAMOS B cells; Homo sapiens, Ramos)
C=CC(=O)N1CCCC(c2c(F)cc(C(N)=O)c3[nH]c4c(c23)CCCCC4)C1 (single isomer, unassigned) [Compound 5-6] | < 10 nM | < 10 nM | 21.3% | -24.7% | 
C=CC(=O)N1CCC[C@@H](c2c(F)cc(C(N)=O)c3[nH]c4c(c23)CCC4)C1 [Compound 10-2, (S)-8-(1-acryloylpiperidin-3-yl)-7-fluoro-1,2,3,4-tetrahydrocyclo-penta[b]indole-5-carboxamide] | < 10 nM |  | 20.2% | 22.9% | < 10 nM
C=CC(=O)N1CCC[C@@H](c2c(F)cc(C(N)=O)c3[nH]c4c(c23)CC2(CC4)CC2)C1 [Compound 6-2, (S)-5-(1-acryloylpiperidin-3-yl)-6-fluoro-1,2,4,9-tetrahydrospiro[carbazole-3,1′-cyclopropane]-8-carboxamide] | < 10 nM |  | 24.9% | 10.1% | < 10 nM
